Measured values taken from patent US20230165873A1, “Methods of Use for Single Molecule Compounds Providing Multi-Target Inhibition to Treat Covid 19” (priority 2020, published 2023).
Where two headings read alike, the source gives them in different places.

How the values were obtained:
BRD4-2 = target: T1, BRD4-2 (Homo sapiens, UniProt O60885); experiment: BRD4-2 in vitro inhibition; assay type: binding
T1 construct: BRD4-2
Protocol: (§1) The kinase or bromodomain inhibitory activity of a compound of the invention can be determined by routine methods known to the skilled artisan without undue experimentation, or by procuring relevant analysis by a commercial vendor offering such services. […] In vivo, PI3K inhibition can be determined from target tissue biopsies by standard tissue processing in which cells are disrupted and Western Blot analysis is performed to determine the presence or absence of pAKT (substrate of PI3K) relative to a control sample. PI3K inhibition assays and BTK inhibition assays are known in the art and can be procured commercially through vendors such as Reaction Biology (Malvern, PA). The activity of a compound of the invention as an inhibitor of a bromodomain-containing protein, such as a BET protein, including BRD2, BRD3, BRD4, and/or BRDT, or an isoform or mutant thereof, may be determined in vitro, in vivo, or in a cell line. In vitro assays include assays that determine inhibition of bromodomain-containing proteins. Alternatively, inhibitor binding may be determined by running a competition experiment where a provided compound is incubated with a bromodomain-containing protein, such as a BET protein bound to known ligands, labeled or unlabeled. In vitro bromodomain inhibition assays can be performed using Alpha Screen Technology (Perkin Elmer Life and Analytical Sciences, Shelton, CT). In vivo bromodomain inhibition can be determined indirectly by evaluating the amount of a protein whose gene transcription is influenced or controlled by the bromodomain protein, for example, MYCN protein transcription is controlled by BRD4 (J.E. Delmore et al., Cell 2011, 146, 904-917; A. Puissant, Cancer Discov. 2013, 3, 308-323).

BTK = BTK (Homo sapiens, UniProt Q06187); experiment: BTK in vitro inhibition; assay type: biochemical
Protocol: as §1
(§2) IC50 inhibition data against the indicated targets were determined for compounds of the invention using standard in vitro assays (Tables 8 and 9).

PI3K gamma = PI3K gamma (Homo sapiens, UniProt P48736); experiment: PI3K gamma in vitro inhibition; assay type: biochemical
Protocol: as §1, §2

BRD4-1 = target: T2, BRD4-1 (Homo sapiens, UniProt O60885); experiment: BRD4-1 in vitro inhibition; assay type: binding
T2 construct: BRD4-1
Protocol: as §1

PI3K beta = PI3K beta (Homo sapiens, UniProt P42338); experiment: PI3K beta in vitro inhibition; assay type: biochemical
Protocol: as §1

BTK C481S = BTK C481S (Homo sapiens, UniProt Q06187, C481S); experiment: BTK C481S in vitro inhibition; assay type: biochemical
Protocol: as §1, §2

PI3K alpha = PI3K alpha (Homo sapiens, UniProt P42336); experiment: PI3K alpha in vitro inhibition; assay type: biochemical
Protocol: as §1

PI3K delta = PI3K delta (Homo sapiens, UniProt O00329); experiment: PI3K delta in vitro inhibition; assay type: biochemical
Protocol: as §1, §2

CDK4 cyclinD1 = CDK4 cyclinD1 (Homo sapiens, UniProt P11802); experiment: CDK4 cyclinD1 in vitro inhibition; assay type: biochemical
Protocol: as §1, §2

CDK6 cyclinD1 = CDK6 cyclinD1 (Homo sapiens, UniProt Q00534); experiment: CDK6 cyclinD1 in vitro inhibition; assay type: biochemical
Protocol: as §1, §2

Syk = Syk (Homo sapiens, UniProt P43405); experiment: Syk in vitro inhibition; assay type: biochemical
Protocol: as §1, §2

[1] = read-out: IC50 inhibition PI3K gamma

PI3K alpha, sequence (P42336 whole entry): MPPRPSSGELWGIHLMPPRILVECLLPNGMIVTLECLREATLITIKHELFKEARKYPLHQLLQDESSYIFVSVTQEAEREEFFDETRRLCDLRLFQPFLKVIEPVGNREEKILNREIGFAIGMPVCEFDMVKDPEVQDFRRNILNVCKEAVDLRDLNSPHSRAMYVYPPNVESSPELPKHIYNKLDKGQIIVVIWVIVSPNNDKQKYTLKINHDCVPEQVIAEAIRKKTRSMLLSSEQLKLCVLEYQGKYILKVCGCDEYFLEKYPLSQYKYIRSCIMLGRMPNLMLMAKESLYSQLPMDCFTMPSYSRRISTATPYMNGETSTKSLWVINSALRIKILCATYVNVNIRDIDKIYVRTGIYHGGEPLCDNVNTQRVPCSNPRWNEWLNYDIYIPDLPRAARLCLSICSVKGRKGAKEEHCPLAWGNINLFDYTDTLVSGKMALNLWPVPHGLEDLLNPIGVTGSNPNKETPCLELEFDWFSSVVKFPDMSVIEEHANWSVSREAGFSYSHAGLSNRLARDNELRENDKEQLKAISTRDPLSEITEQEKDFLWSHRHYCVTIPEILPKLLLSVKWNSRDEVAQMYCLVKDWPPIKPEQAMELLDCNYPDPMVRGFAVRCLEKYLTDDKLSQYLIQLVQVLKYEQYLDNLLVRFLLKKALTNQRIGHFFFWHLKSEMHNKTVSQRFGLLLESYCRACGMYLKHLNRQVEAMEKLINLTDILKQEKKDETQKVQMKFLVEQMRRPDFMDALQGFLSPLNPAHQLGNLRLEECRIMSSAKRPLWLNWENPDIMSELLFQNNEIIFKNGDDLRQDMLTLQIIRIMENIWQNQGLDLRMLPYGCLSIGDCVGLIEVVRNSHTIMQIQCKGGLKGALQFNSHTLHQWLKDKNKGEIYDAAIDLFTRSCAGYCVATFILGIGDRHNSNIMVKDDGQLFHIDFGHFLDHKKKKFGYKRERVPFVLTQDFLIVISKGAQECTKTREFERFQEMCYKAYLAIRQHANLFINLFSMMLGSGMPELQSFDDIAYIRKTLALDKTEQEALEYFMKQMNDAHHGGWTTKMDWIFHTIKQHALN
PI3K alpha, sequence (P27986 whole entry partner): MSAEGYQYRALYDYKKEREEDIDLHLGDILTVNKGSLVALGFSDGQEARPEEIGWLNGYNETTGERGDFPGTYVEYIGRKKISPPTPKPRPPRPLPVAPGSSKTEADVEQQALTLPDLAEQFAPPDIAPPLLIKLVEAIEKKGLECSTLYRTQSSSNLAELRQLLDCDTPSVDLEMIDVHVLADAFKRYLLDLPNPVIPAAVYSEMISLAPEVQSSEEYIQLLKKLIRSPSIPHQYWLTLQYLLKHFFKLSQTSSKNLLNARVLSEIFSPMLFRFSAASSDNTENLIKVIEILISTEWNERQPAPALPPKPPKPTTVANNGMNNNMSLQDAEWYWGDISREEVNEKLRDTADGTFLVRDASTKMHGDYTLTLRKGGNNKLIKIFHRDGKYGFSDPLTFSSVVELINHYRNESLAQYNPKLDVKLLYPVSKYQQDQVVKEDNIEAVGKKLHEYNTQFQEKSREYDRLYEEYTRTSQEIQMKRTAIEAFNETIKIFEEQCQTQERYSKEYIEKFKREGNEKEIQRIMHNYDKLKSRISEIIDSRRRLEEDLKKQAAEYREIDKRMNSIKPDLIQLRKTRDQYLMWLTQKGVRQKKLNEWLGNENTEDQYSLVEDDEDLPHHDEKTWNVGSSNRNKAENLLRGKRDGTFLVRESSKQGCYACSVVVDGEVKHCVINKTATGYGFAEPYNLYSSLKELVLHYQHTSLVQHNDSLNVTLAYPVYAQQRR
CDK4 cyclinD1, sequence (P11802 whole entry): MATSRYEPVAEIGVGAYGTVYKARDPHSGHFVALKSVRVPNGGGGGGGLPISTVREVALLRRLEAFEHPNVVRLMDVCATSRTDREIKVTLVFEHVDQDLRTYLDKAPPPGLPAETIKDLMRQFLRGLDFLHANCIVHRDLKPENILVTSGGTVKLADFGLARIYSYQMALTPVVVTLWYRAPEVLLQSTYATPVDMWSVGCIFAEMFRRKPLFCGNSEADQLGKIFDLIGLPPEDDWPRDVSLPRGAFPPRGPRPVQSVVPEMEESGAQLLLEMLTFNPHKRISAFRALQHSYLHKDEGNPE
CDK4 cyclinD1, sequence (P24385 whole entry partner): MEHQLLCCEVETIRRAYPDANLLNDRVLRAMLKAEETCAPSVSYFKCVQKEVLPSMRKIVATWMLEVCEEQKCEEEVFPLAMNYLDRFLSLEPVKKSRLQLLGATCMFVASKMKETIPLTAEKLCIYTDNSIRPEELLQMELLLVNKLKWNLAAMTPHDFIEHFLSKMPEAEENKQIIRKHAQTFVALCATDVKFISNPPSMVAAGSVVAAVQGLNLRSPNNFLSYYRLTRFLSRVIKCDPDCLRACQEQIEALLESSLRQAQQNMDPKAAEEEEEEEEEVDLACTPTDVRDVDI
PI3K beta, sequence (P42338 whole entry): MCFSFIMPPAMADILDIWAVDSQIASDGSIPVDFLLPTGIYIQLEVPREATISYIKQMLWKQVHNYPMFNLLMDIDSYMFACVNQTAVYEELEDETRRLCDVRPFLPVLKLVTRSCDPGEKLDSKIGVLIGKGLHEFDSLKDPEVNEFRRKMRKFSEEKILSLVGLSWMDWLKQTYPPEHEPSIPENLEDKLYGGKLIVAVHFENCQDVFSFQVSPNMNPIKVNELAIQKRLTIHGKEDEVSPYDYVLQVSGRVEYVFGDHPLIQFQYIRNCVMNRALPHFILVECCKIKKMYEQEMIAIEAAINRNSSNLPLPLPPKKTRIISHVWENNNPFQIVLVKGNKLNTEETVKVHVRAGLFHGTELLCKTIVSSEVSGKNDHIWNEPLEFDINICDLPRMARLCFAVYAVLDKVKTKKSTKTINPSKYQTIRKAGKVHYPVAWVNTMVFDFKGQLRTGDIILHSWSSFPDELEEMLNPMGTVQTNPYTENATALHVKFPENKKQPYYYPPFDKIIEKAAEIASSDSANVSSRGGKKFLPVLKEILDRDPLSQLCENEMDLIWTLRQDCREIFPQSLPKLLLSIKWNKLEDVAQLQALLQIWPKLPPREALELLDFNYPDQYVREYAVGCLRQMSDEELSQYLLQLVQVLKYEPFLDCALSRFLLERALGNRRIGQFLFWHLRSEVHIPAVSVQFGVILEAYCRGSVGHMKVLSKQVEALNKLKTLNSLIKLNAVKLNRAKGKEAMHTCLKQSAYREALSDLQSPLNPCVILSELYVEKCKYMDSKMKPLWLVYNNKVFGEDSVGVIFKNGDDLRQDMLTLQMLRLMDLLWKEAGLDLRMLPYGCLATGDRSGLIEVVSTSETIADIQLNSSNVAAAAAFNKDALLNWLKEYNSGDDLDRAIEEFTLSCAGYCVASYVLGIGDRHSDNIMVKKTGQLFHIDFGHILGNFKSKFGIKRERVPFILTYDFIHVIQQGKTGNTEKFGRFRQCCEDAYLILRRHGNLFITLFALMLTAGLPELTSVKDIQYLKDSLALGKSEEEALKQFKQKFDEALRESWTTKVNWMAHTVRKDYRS
PI3K beta, sequence (P27986 whole entry partner): as the sequence (P27986 whole entry partner) above
BTK, sequence (Q06187 whole entry): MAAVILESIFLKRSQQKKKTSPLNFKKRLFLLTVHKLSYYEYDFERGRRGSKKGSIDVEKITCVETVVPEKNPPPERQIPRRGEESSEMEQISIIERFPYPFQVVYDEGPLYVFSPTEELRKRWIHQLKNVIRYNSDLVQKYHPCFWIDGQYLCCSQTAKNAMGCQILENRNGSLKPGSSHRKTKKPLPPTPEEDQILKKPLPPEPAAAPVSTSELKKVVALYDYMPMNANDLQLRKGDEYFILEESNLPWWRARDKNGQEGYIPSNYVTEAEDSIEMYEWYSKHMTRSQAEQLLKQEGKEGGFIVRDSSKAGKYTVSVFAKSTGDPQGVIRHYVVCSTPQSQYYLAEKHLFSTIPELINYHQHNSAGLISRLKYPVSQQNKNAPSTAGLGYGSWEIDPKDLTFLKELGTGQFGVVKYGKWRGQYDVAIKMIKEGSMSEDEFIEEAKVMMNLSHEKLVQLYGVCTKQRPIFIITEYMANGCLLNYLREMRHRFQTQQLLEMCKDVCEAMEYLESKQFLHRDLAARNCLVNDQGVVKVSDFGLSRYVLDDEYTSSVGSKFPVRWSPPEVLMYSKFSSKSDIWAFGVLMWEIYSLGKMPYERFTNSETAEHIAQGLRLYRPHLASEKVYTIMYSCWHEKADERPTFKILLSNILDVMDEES
CDK6 cyclinD1, sequence (Q00534 whole entry): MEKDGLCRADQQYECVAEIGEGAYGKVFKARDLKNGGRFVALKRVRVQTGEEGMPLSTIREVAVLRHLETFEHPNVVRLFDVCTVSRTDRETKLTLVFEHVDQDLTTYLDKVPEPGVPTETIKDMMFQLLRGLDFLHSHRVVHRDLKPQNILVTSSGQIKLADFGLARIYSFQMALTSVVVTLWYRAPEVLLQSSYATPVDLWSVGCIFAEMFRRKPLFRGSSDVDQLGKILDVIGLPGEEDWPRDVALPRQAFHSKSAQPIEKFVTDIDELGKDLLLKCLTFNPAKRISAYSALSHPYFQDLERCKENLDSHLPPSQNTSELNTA
CDK6 cyclinD1, sequence (P24385 whole entry partner): as the sequence (P24385 whole entry partner) above
BTK C481S, sequence (Q06187 whole entry C481S): as the sequence (Q06187 whole entry) above, with C481S counted along it

SMILES	IC50 (BRD4-2) [nM]	IC50 (BTK) [nM]	IC50 (PI3K gamma; [1]) [nM]	IC50 (BRD4-1) [nM]	IC50 (PI3K beta) [nM]	IC50 (BTK C481S) [µM]	IC50 (PI3K alpha) [nM]	IC50 (PI3K delta) [nM]	IC50 (CDK4 cyclinD1) [nM]	IC50 (CDK6 cyclinD1) [nM]	IC50 (Syk) [nM]	IC50 (PI3K gamma; IC50 inhibition PI3K gamma) [nM]
C=CC(=O)Nc1cccc(-c2csc3c(=O)cc(N4CCOCC4)oc23)c1 [Compound 31]	1000 to 10000	500 to 1000	1000 to 10000	500 to 1000	< 500	> 45	< 500	–	–	–	–	–
O=C(C1=CCCC1)N1CCOc2ccc(-c3csc4c(=O)cc(N5CCOCC5)oc34)cc21 [Compound 40]	< 500	> 45000	1000 to 10000	< 500	< 500	10 to 45	< 500	–	–	–	–	–
C=CS(=O)(=O)N(c1cccc(-c2csc3c(=O)cc(N4CCOCC4)oc23)c1)S(=O)(=O)C=C [Compound 50]	< 500	< 500	< 500	< 500	< 500	10 to 45	< 500	–	–	–	–	–
C=CS(=O)(=O)N(C)c1cccc(-c2csc3c(=O)cc(N4CCOCC4)oc23)c1 [Compound 47]	500 to 1000	< 500	< 500	< 500	< 500	> 45	< 500	–	–	–	–	–
COc1cc(NC(C)=O)cc(-c2csc3c(=O)cc(N4CCOCC4)oc23)c1 [Compound 33]	1000 to 10000	500 to 1000	< 500	< 500	< 500	> 45	< 500	–	–	–	–	–
C=CS(=O)(=O)N(C)c1cc(-c2csc3c(=O)cc(N4CCOCC4)oc23)ccc1OC [Compound 48]	< 500	< 500	< 500	< 500	< 500	> 45	< 500	–	–	–	–	–
O=c1cc(N2CCOCC2)oc2c(C#Cc3ccsc3)csc12 [Compound 5-1]	10000 to 45000	–	< 500	10000 to 45000	–	–	< 500	< 500	–	–	–	–
Cc1nn(-c2ccnc(Nc3ccc(-c4csc5c(=O)cc(N6CCNCC6)oc45)cc3)n2)cc1CN1CC(O)C1 [Compound 53]	> 45000	–	> 45000	10000 to 45000	–	–	1000 to 10000	1000 to 10000	1000 to 10000	< 500	< 500	–
C/C=C(/C)C(=O)N1CCOc2ccc(-c3csc4c(=O)cc(N5CCOCC5)oc34)cc21 [Compound 37]	500 to 1000	10000 to 45000	500 to 1000	500 to 1000	< 500	> 45	< 500	–	–	–	–	–
Cc1nn(-c2ccnc(Nc3ccc(-c4csc5c(=O)cc(N6CCNCC6)oc45)cc3)n2)cc1CN1CCC1 [Compound 55]	> 45000	–	> 45000	1000 to 10000	–	–	> 45000	1000 to 10000	1000 to 10000	< 500	< 500	–
COc1cc(C#Cc2csc3c(=O)cc(N4CCOCC4)oc23)cc(OC)c1 [Compound 5-3]	500 to 1000	–	1000 to 10000	< 500	–	–	500 to 1000	< 500	–	–	–	–
C=CS(=O)(=O)Nc1cc(-c2csc3c(=O)cc(N4CCOCC4)oc23)ccc1OC [Compound 45]	< 500	< 500	< 500	< 500	< 500	> 45	< 500	–	–	–	–	–
Cc1nc2c(F)cc(-c3nc(Nc4ccc(-c5csc6c(=O)cc(N7CCOCC7)oc56)cc4)ncc3F)cc2n1C(C)C [Compound 25-1]	> 45000	–	> 45000	> 45000	–	–	10000 to 45000	1000 to 10000	< 500	< 500	–	–
Cc1nn(-c2ccnc(Nc3ccc(-c4csc5c(=O)cc(N6CCOCC6)oc45)cc3)n2)cc1CN1CCC1 [Compound 54]	1000 to 10000	–	1000 to 10000	1000 to 10000	–	–	< 500	< 500	> 45000	> 45000	< 500	–
Cc1nn(-c2ccnc(Nc3ccc(-c4csc5c(=O)cc(N6CCOCC6)oc45)cc3)n2)cc1CN(C)CCO [Compound 59]	1000 to 10000	–	10000 to 45000	1000 to 10000	–	–	1000 to 10000	1000 to 10000	1000 to 10000	1000 to 10000	500 to 1000	–
C=CC(=O)N1CCOc2ccc(-c3csc4c(=O)cc(N5CCOCC5)oc34)cc21 [Compound 32]	< 500	< 500	< 500	< 500	< 500	10 to 45	< 500	–	–	–	–	–
C/C=C(\C)C(=O)N1CCOc2ccc(-c3csc4c(=O)cc(N5CCOCC5)oc34)cc21 [Compound 38]	500 to 1000	> 45000	1000 to 10000	< 500	< 500	> 45	< 500	–	–	–	–	–
COc1ccc(C#Cc2csc3c(=O)cc(N4CCOCC4)oc23)cc1 [Compound 5-2]	1000 to 10000	–	–	500 to 1000	–	–	< 500	< 500	–	–	–	500 to 1000
C=CS(=O)(=O)N1CCCc2ccc(-c3csc4c(=O)cc(N5CCOCC5)oc34)cc21 [Compound 44]	< 500	< 500	< 500	< 500	< 500	10 to 45	< 500	–	–	–	–	–
C=CC(=O)Nc1cc(-c2csc3c(=O)cc(N4CCOCC4)oc23)ccc1OC [Compound 36]	500 to 1000	1000 to 10000	1000 to 10000	< 500	< 500	1 to 10	< 500	–	–	–	–	–
C=CS(=O)(=O)N(c1cc(-c2csc3c(=O)cc(N4CCOCC4)oc23)ccc1OC)S(=O)(=O)C=C [Compound 49]	1000 to 10000	< 500	< 500	< 500	< 500	10 to 45	< 500	–	–	–	–	–
C=CS(=O)(=O)Nc1cccc(-c2csc3c(=O)cc(N4CCOCC4)oc23)c1 [Compound 46]	< 500	< 500	< 500	< 500	< 500	> 45	< 500	–	–	–	–	–
CC(C)(C)OC(=O)Nc1cc2cnc(Nc3ccc(-c4csc5c(=O)cc(N6CCOCC6)oc45)cc3)nc2n1C1CCCC1 [Compound 25-3]	500 to 1000	–	1000 to 10000	< 500	–	–	< 500	< 500	< 500	< 500	–	–
C=CC(=O)Nc1ccc(-c2csc3c(=O)cc(N4CCOCC4)oc23)cc1 [Compound 30]	< 500	10000 to 45000	500 to 1000	1000 to 10000	< 500	> 45	< 500	–	–	–	–	–
CC(=O)c1c(C)c2cnc(Nc3ccc(-c4csc5c(=O)cc(N6CCOCC6)oc45)cc3)nc2n(C2CCCC2)c1=O [Compound 25-2]	< 500	–	1000 to 10000	< 500	–	–	< 500	< 500	< 500	< 500	–	–
C/C=C/C(=O)N1CCOc2ccc(-c3csc4c(=O)cc(N5CCOCC5)oc34)cc21 [Compound 39]	< 500	10000 to 45000	1000 to 10000	< 500	< 500	> 45	< 500	–	–	–	–	–
O=c1cc(N2CCOCC2)oc2c(C#Cc3ccccc3)csc12 [Compound 5-4]	10000 to 45000	–	< 500	1000 to 10000	–	–	< 500	< 500	–	–	–	–
C=CS(=O)(=O)N(CCS(=O)(=O)N(c1cc(-c2csc3c(=O)cc(N4CCOCC4)oc23)ccc1OC)S(=O)(=O)C=C)c1cc(-c2csc3c(=O)cc(N4CCOCC4)oc23)ccc1OC [Compound 51]	< 500	1000 to 10000	500 to 1000	1000 to 10000	< 500	10 to 45	< 500	–	–	–	–	–
